ChEMBL document CHEMBL4507267 (2021)

Columns and labels:
[1] = system: Tyrosine-protein kinase ABL1 (Homo sapiens), P00519 [F317L]; conditions: Compound concentration 1000.0 nM
[2] = molecular target: Activin receptor type-1-like (Homo sapiens) (UniProt P37023); conditions: Compound concentration 1000.0 nM
[3] = molecular target: Serine/threonine-protein kinase B-raf (Homo sapiens) (UniProt P15056); conditions: Compound concentration 1000.0 nM
[4] = molecular target: Tyrosine-protein kinase BTK (Homo sapiens) (UniProt Q06187); conditions: Compound concentration 1000.0 nM
[5] = molecular target: Cyclin-dependent kinase 19 (Homo sapiens) (UniProt Q9BWU1); conditions: Compound concentration 1000.0 nM
[6] = molecular target: Cyclin-dependent kinase 4 (Homo sapiens) (UniProt P11802); conditions: Compound concentration 1000.0 nM
[7] = molecular target: Cyclin-dependent kinase 7 (Homo sapiens) (UniProt P50613); conditions: Compound concentration 1000.0 nM
[8] = molecular target: Macrophage colony-stimulating factor 1 receptor (Homo sapiens) (UniProt P07333); conditions: Compound concentration 1000.0 nM
[9] = molecular target: Casein kinase I isoform alpha (Homo sapiens) (UniProt P48729); conditions: Compound concentration 1000.0 nM
[10] = molecular target: Casein kinase I isoform gamma-1 (Homo sapiens) (UniProt Q9HCP0); conditions: Compound concentration 1000.0 nM
[11] = molecular target: Serine/threonine-protein kinase DCLK1 (Homo sapiens) (UniProt O15075); conditions: Compound concentration 1000.0 nM
[12] = molecular target: Vascular endothelial growth factor receptor 1 (Homo sapiens) (UniProt P17948); conditions: Compound concentration 1000.0 nM
[13] = system: Receptor-type tyrosine-protein kinase FLT3 (Homo sapiens), P36888 [N841I]; conditions: Compound concentration 1000.0 nM
[14] = molecular target: Tyrosine-protein kinase FRK (Homo sapiens) (UniProt P42685); conditions: Compound concentration 1000.0 nM
[15] = molecular target: Homeodomain-interacting protein kinase 2 (Homo sapiens) (UniProt Q9H2X6); conditions: Compound concentration 1000.0 nM
[16] = molecular target: Mitogen-activated protein kinase kinase kinase kinase 1 (Homo sapiens) (UniProt Q92918); conditions: Compound concentration 1000.0 nM
[17] = molecular target: Serine/threonine-protein kinase ICK (Homo sapiens) (UniProt Q9UPZ9); conditions: Compound concentration 1000.0 nM
[18] = molecular target: Interleukin-1 receptor-associated kinase 1 (Homo sapiens) (UniProt P51617); conditions: Compound concentration 1000.0 nM
[19] = system: Mast/stem cell growth factor receptor Kit (Homo sapiens), P10721 [V559D]; conditions: Compound concentration 1000.0 nM
[20] = system: Mast/stem cell growth factor receptor Kit (Homo sapiens), P10721 [V559D,V654A]; conditions: Compound concentration 1000.0 nM
[21] = molecular target: Serine/threonine-protein kinase LATS2 (Homo sapiens) (UniProt Q9NRM7); conditions: Compound concentration 1000.0 nM
[22] = molecular target: Dual specificity mitogen-activated protein kinase kinase 2 (Homo sapiens) (UniProt P36507); conditions: Compound concentration 1000.0 nM
[23] = molecular target: Serine/threonine-protein kinase Nek7 (Homo sapiens) (UniProt Q8TDX7); conditions: Compound concentration 1000.0 nM
[24] = molecular target: Mitogen-activated protein kinase 13 (Homo sapiens) (UniProt O15264); conditions: Compound concentration 1000.0 nM
[25] = molecular target: Serine/threonine-protein kinase PAK 6 (Homo sapiens) (UniProt Q9NQU5); conditions: Compound concentration 1000.0 nM
[26] = system: Phosphatidylinositol 4,5-bisphosphate 3-kinase catalytic subunit alpha isoform (Homo sapiens), P42336 [C420R]; conditions: Compound concentration 1000.0 nM
[27] = molecular target: Serine/threonine-protein kinase pim-2 (Homo sapiens) (UniProt Q9P1W9); conditions: Compound concentration 1000.0 nM
[28] = molecular target: Serine/threonine-protein kinase N1 (Homo sapiens) (UniProt Q16512); conditions: Compound concentration 1000.0 nM
[29] = molecular target: Serine/threonine-protein kinase PknB (Mycobacterium tuberculosis) (UniProt P9WI81); conditions: Compound concentration 1000.0 nM
[30] = molecular target: Serine/threonine-protein kinase PLK3 (Homo sapiens) (UniProt Q9H4B4); conditions: Compound concentration 1000.0 nM
[31] = molecular target: Dual serine/threonine and tyrosine protein kinase (Homo sapiens) (UniProt Q6XUX3); conditions: Compound concentration 1000.0 nM
[32] = molecular target: Ribosomal protein S6 kinase alpha-3 (Homo sapiens) (UniProt P51812); conditions: Compound concentration 1000.0 nM
[33] = molecular target: Serine/threonine-protein kinase Sgk1 (Homo sapiens) (UniProt O00141); conditions: Compound concentration 1000.0 nM
[34] = molecular target: Activated CDC42 kinase 1 (Homo sapiens) (UniProt Q07912); conditions: Compound concentration 1000.0 nM
[35] = molecular target: Serine/threonine-protein kinase ULK1 (Homo sapiens) (UniProt O75385); conditions: Compound concentration 1000.0 nM
[36] = molecular target: Serine/threonine-protein kinase VRK2 (Homo sapiens) (UniProt Q86Y07); conditions: Compound concentration 1000.0 nM
[37] = molecular target: Serine/threonine-protein kinase 25 (Homo sapiens) (UniProt O00506); conditions: Compound concentration 1000.0 nM
[38] = molecular target: 5-hydroxytryptamine receptor 1D (Homo sapiens) (UniProt P28221); conditions: Compound concentration 10.0 uM
[39] = molecular target: 5-hydroxytryptamine receptor 2B (Homo sapiens) (UniProt P41595); conditions: Compound concentration 10.0 uM
[40] = molecular target: 5-hydroxytryptamine receptor 3A (Homo sapiens) (UniProt P46098); conditions: Compound concentration 10.0 uM
[41] = molecular target: D(4) dopamine receptor (Homo sapiens) (UniProt P21917); conditions: Compound concentration 10.0 uM
[42] = molecular target: Kappa-type opioid receptor (Homo sapiens) (UniProt P41145); conditions: Compound concentration 10.0 uM
[43] = molecular target: Alpha-1B adrenergic receptor (Homo sapiens) (UniProt P35368); conditions: Compound concentration 10.0 uM
[44] = molecular target: Alpha-2B adrenergic receptor (Homo sapiens) (UniProt P18089); conditions: Compound concentration 10.0 uM
[45] = molecular target: Sigma non-opioid intracellular receptor 1 (Homo sapiens) (UniProt Q99720); conditions: Compound concentration 10.0 uM
Sequence of Sigma non-opioid intracellular receptor 1 (Homo sapiens) (Q99720 whole entry): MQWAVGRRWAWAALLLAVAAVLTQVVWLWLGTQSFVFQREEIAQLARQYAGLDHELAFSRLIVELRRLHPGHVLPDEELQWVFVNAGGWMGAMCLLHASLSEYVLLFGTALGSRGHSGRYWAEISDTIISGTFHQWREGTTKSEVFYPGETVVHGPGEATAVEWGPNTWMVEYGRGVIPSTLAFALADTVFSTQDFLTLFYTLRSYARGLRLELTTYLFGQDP

Sequence of Phosphatidylinositol 4,5-bisphosphate 3-kinase catalytic subunit alpha isoform (Homo sapiens), P42336 [C420R] (P42336 whole entry C420R, canonical isoform): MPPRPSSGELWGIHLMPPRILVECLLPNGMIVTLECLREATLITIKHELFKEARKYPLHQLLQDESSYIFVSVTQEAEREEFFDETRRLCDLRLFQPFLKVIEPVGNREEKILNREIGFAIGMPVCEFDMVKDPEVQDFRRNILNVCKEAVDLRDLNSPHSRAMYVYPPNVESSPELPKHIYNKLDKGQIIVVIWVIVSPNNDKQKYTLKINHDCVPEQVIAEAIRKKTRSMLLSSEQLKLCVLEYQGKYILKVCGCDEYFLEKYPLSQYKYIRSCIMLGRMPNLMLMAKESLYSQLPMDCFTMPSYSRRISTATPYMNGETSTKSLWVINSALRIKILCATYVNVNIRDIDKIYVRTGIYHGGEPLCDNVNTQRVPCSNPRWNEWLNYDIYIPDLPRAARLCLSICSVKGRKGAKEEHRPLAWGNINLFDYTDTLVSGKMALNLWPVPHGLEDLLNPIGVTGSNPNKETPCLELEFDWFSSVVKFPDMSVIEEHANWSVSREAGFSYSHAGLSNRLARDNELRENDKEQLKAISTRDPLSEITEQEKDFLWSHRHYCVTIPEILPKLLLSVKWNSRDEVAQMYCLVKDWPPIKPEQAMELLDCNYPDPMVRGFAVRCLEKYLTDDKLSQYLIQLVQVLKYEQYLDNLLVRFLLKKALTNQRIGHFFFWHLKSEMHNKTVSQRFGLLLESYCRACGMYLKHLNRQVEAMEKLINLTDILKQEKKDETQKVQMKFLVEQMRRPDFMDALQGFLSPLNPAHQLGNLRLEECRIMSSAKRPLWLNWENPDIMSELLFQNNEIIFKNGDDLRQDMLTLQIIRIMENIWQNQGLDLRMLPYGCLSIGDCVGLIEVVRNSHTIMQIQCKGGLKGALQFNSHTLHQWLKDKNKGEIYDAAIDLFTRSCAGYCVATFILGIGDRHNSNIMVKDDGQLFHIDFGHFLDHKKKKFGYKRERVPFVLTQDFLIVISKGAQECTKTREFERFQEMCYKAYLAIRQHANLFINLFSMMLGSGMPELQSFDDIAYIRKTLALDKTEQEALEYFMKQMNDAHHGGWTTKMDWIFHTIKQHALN
Sequence of Serine/threonine-protein kinase ULK1 (Homo sapiens) (O75385 whole entry): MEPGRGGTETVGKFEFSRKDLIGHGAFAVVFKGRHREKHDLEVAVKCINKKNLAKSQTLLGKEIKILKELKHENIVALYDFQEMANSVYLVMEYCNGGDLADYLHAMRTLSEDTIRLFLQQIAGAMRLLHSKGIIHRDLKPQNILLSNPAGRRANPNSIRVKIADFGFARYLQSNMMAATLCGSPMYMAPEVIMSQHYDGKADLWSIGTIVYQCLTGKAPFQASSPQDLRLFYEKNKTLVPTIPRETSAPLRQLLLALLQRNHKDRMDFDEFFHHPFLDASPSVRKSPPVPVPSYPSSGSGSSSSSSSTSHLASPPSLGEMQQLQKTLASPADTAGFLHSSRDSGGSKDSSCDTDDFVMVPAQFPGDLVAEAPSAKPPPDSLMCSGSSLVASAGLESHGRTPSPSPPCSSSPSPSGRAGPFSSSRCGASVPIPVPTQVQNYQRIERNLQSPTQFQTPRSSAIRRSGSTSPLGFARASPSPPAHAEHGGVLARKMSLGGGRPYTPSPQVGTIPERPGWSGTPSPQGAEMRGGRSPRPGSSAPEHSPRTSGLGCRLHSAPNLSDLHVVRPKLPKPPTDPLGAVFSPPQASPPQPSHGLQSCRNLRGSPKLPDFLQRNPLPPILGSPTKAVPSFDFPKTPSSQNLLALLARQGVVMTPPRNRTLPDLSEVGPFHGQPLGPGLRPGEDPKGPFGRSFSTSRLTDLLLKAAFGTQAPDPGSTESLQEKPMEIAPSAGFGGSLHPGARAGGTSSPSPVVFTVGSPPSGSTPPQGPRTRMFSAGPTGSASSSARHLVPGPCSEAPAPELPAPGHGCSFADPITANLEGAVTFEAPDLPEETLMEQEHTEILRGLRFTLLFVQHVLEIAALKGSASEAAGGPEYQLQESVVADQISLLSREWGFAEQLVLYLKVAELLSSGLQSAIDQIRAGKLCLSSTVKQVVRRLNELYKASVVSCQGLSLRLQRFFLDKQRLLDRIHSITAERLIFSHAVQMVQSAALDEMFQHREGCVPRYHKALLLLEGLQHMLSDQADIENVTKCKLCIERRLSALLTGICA
Sequence of Vascular endothelial growth factor receptor 1 (Homo sapiens) (P17948 whole entry): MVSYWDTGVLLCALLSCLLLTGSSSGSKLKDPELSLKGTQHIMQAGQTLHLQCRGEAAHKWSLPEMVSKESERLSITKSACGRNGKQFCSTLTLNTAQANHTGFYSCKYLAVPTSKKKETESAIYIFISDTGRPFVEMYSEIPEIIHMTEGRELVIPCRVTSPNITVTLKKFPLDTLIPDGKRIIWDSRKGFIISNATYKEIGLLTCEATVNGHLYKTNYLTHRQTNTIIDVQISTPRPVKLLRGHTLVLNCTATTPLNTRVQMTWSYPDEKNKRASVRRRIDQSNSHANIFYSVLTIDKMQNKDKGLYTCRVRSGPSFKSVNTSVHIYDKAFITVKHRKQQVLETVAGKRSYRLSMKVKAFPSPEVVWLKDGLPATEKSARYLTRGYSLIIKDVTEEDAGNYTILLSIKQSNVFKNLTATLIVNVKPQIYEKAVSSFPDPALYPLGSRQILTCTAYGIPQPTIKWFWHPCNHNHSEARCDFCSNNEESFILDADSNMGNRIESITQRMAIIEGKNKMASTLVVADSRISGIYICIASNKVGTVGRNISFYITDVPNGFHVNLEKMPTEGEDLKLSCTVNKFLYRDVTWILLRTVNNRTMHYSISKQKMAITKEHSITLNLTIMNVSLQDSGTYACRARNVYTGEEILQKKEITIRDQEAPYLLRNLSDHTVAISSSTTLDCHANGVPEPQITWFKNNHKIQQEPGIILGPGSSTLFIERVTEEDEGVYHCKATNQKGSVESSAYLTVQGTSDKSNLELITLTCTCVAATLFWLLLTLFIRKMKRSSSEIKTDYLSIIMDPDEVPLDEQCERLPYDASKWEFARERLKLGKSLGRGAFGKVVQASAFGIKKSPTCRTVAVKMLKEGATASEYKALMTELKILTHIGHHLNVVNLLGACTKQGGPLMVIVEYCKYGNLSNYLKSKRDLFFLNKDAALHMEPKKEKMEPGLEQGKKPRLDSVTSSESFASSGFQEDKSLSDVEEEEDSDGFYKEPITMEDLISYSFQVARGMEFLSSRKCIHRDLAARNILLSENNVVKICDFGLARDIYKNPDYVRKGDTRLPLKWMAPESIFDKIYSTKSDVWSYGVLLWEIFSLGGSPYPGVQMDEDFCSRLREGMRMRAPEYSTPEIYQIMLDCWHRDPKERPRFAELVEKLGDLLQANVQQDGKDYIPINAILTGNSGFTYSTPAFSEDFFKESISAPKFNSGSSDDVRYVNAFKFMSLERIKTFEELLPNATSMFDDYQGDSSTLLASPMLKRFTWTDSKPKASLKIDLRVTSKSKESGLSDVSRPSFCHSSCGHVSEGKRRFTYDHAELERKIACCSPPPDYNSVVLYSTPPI
Sequence of Serine/threonine-protein kinase Sgk1 (Homo sapiens) (O00141 whole entry): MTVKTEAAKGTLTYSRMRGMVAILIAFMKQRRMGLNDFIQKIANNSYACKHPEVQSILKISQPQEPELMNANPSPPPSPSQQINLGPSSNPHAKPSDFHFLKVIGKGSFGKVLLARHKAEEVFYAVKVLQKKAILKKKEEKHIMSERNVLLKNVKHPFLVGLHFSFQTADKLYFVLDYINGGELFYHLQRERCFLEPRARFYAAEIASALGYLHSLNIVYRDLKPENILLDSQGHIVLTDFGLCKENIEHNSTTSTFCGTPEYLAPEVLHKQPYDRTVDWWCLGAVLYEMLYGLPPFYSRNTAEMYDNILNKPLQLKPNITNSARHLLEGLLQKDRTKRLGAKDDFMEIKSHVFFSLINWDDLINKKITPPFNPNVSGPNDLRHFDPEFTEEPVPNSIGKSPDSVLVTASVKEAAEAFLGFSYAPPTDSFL
Sequence of Interleukin-1 receptor-associated kinase 1 (Homo sapiens) (P51617 whole entry, looked up): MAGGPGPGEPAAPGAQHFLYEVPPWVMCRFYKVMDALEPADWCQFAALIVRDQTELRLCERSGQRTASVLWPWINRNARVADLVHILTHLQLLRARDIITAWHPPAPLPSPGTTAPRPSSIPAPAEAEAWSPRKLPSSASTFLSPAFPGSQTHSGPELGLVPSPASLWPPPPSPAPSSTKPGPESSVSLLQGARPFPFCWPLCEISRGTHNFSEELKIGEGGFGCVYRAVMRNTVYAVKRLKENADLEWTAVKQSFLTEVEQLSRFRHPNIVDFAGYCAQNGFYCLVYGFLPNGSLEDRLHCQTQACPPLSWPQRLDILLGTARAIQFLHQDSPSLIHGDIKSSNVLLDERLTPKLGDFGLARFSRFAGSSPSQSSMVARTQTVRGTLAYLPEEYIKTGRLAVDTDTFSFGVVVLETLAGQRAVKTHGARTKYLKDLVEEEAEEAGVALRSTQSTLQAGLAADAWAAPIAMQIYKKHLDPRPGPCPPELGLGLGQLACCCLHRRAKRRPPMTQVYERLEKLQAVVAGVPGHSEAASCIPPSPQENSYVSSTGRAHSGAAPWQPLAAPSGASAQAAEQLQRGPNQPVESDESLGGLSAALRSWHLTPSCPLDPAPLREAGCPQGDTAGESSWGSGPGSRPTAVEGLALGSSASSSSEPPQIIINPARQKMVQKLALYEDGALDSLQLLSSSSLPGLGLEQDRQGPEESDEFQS

## Cc1c(NC(=O)c2cc(C(N)=O)nc3cc(F)ccc23)c(C(F)(F)F)nn1Cc1ccc(C(C)(C)C)cc1 [BAY-588]
[1]
  residual activity: 98%
[2]
  residual activity: 94%
[3]
  residual activity: 81%
[4]
  residual activity: 100%
[5]
  residual activity: 100%
[6]
  residual activity: 100%
[7]
  residual activity: 100%
[8]
  residual activity: 100%
[9]
  residual activity: 94%
[10]
  residual activity: 100%
[11]
  residual activity: 91%
[12]
  residual activity: 100%
[13]
  residual activity: 52%
[14]
  residual activity: 90%
[15]
  residual activity: 100%
[16]
  residual activity: 100%
[17]
  residual activity: 61%
[18]
  residual activity: 100%
[19]
  residual activity: 95%
[20]
  residual activity: 98%
[21]
  residual activity: 84%
[22]
  residual activity: 100%
[23]
  residual activity: 100%
[24]
  residual activity: 49%
[25]
  residual activity: 100%
[26]
  residual activity: 100%
[27]
  residual activity: 100%
[28]
  residual activity: 100%
[29]
  residual activity: 95%
[30]
  residual activity: 94%
[31]
  residual activity: 89%
[32]
  residual activity: 100%
[33]
  residual activity: 100%
[34]
  residual activity: 100%
[35]
  residual activity: 98%
[36]
  residual activity: 95%
[37]
  residual activity: 100%
[38]
  inhibition: -4.9%
[39]
  inhibition: -8.78%
[40]
  inhibition: 7.59%
[41]
  inhibition: 4.93%
[42]
  inhibition: 22.1%
[43]
  inhibition: -5.98%
[44]
  inhibition: 15.6%
[45]
  inhibition: 6.28%

## Cc1c(NC(=O)c2cc(C(N)=O)nc3cc(F)ccc23)c(C(F)(F)F)nn1Cc1ccc(C#N)cc1 [BAY-876]
[1]
  residual activity: 81%
[2]
  residual activity: 100%
[3]
  residual activity: 91%
[4]
  residual activity: 70%
[5]
  residual activity: 82%
[6]
  residual activity: 81%
[7]
  residual activity: 52%
[8]
  residual activity: 100%
[9]
  residual activity: 72%
[10]
  residual activity: 100%
[11]
  residual activity: 85%
[12]
  residual activity: 98%
[13]
  residual activity: 53%
[14]
  residual activity: 100%
[15]
  residual activity: 83%
[16]
  residual activity: 100%
[17]
  residual activity: 100%
[18]
  residual activity: 70%
[19]
  residual activity: 100%
[20]
  residual activity: 58%
[21]
  residual activity: 72%
[22]
  residual activity: 89%
[23]
  residual activity: 99%
[24]
  residual activity: 70%
[25]
  residual activity: 100%
[26]
  residual activity: 70%
[27]
  residual activity: 94%
[28]
  residual activity: 98%
[29]
  residual activity: 78%
[30]
  residual activity: 84%
[31]
  residual activity: 78%
[32]
  residual activity: 87%
[33]
  residual activity: 90%
[34]
  residual activity: 71%
[35]
  residual activity: 81%
[36]
  residual activity: 72%
[37]
  residual activity: 100%
[38]
  inhibition: 6.11%
[39]
  inhibition: 11.1%
[40]
  inhibition: -7.03%
[41]
  inhibition: 15.1%
[42]
  inhibition: -6.9%
[43]
  inhibition: -8.82%
[44]
  inhibition: 7.66%
[45]
  inhibition: -2.5%
